The target of the assay is T1, Muscarinic acetylcholine receptor M4 (Homo sapiens) (UniProt P08173).
T1 sequence (whole entry): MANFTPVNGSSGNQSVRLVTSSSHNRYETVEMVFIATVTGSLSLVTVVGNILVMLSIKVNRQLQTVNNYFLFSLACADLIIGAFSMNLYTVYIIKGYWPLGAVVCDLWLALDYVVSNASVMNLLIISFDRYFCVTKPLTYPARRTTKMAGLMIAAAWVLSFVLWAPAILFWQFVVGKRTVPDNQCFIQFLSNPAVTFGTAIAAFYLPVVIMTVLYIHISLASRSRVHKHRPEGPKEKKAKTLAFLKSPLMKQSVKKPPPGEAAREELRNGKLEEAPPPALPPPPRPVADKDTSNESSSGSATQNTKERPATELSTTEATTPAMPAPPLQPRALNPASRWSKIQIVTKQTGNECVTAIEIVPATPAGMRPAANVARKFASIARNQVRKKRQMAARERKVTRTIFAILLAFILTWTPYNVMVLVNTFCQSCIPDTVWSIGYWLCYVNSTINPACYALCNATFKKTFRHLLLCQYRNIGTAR
The assay can be described thus: Binding affinity to M4 receptor (unknown origin) assessed as fold change in presence of acetylcholine.

For the compound `CC1=C(CCO)SC2=Nc3nc(C)ncc3CN21`, the fold change (FC) was 3.

The values are drawn from ChEMBL document CHEMBL5576045, “M1/M4 receptors as potential therapeutic treatments for schizophrenia: A comprehensive study” (Bioorg Med Chem, 2024).
